Test results from US20260042755A1, “GPR6 INVERSE AGONISTS” (MapLight Therapeutics, Inc., priority 2022, published 2026).

Experiments:
[1] = target: T1, GPR6 (Homo sapiens, UniProt P46095); experiment: GPR6 antagonist functional cAMP assay (LANCE Ultra cAMP TR-FRET, CHO cells stably expressing GPR6); format: cell-based
T1 construct: expressed in transfected cells; host or cells: CHO cells
Summary of the method: (§1)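 Stable CHO-GPR6 or CHO-GPR3 cells (10,000/well) in Krebs-Ringer buffer with 0.1% BSA and 150 μM Ro 20-1724 were exposed to compounds for 45 min at 37° C (0.1% DMSO). cAMP read by LANCE Ultra TR-FRET; IC50 from 4-parameter fit normalized to DMSO and reference compounds.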

[2] = target: T2, GPR3 (Homo sapiens, UniProt P46089); experiment: GPR3 antagonist functional cAMP assay (LANCE Ultra cAMP TR-FRET, CHO cells stably expressing GPR3); format: cell-based
T2 construct: expressed in transfected cells; host or cells: CHO cells
T2 sequence (P46089 whole entry, species assumed): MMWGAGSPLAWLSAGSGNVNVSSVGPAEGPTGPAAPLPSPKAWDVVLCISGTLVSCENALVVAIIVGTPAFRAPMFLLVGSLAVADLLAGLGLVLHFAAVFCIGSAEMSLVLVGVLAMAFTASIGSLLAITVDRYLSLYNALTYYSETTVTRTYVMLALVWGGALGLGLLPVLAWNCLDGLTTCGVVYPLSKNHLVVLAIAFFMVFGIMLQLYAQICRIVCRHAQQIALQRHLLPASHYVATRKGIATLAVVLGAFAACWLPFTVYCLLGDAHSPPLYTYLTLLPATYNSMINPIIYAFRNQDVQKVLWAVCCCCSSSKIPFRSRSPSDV
Summary of the method: as §1

[3] = CHO cells stably expressing GPR6, cAMP assay
[4] = CHO cells stably expressing GPR3, cAMP assay
[5] = procedure as described in Example 24
[6] = CHO cells stably expressing GPR6, cAMP assay (Example 24)
[7] = CHO cells stably expressing GPR3, cAMP assay (Example 24)

T1 sequence (P46095 whole entry): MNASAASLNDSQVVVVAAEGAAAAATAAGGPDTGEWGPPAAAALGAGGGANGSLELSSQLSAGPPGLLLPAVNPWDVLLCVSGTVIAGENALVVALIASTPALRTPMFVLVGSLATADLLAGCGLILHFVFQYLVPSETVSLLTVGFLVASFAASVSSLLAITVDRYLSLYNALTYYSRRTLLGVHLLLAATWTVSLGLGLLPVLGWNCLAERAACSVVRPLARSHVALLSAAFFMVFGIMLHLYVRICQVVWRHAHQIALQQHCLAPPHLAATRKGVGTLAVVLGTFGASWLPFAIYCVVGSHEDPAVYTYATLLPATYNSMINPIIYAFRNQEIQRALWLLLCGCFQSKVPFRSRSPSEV

| SMILES | IC50 ([1]; procedure of Example 24) | IC50 ([2]; procedure of Example 24) | IC50 [1, 6] | IC50 [2, 7] | other results |
| --- | --- | --- | --- | --- | --- |
| CC(C)(O)[C@](C)(O)c1cc2nc(-c3cnn(C4CC4)c3)c(N3CCN(Cc4ccc(F)cc4F)CC3)nc2cn1 [Compound 683, (R)-2-[2-(1-cyclopropyl-4-pyrazolyl)-3-{4-[(2,4-difluorophenyl)methyl]-1-piperazinyl}-1,4,6-triaza-7-naphthyl]-3-methyl-2,3-butanediol] | 0.1 to 1 µM | 1 to 30 µM |  |  |  |
| COC[C@@H]1C[C@H]1c1nc2c(nc1N1CCC(Oc3ccc(F)cc3F)CC1)CCN(C(C)=O)C2 [Compound 547, 1-{3-[(1R,2R)-2-(methoxymethyl)cyclopropyl]-2-[4-(2,4-difluorophenoxy)-1-piperidyl]-5,6,7,8-tetrahydro-1,4,6-triaza-6-naphthyl}-1-ethanone] |  |  |  |  | IC50 [1, 3]: 1 to 30 µM; IC50 [2, 4]: 1 to 30 µM |
| CC(C)(O)C(=O)c1cc2nc(N3CCN(Cc4ccc(F)cc4F)CC3)c(-c3cnn(CF)c3)nc2cn1 [Compound 568, 1-(2-{4-[(2,4-difluorophenyl)methyl]-1-piperazinyl}-3-[1-(fluoromethyl)-4-pyrazolyl]-1,4,6-triaza-7-naphthyl)-2-hydroxy-2-methyl-1-propanone] |  |  |  |  | IC50 [1, 3]: 0.1 to 1 µM; IC50 [2, 4]: 1 to 30 µM |
| CC(C)(O)[C@](C)(O)c1cc2nc(N3CCC(Oc4ccc(F)cc4F)CC3)c(-c3cnn(C(F)F)c3)nc2cn1 (single isomer, unassigned) [Compound 655] | 0.1 to 1 µM | 1 to 30 µM |  |  |  |
| CC(=O)N1CCc2nc(N3CCC(Cn4ccccc4=O)CC3)c(-c3cnn(C)c3)nc2C1 [Compound 522, 1-({1-[6-acetyl-3-(1-methyl-4-pyrazolyl)-5,6,7,8-tetrahydro-1,4,6-triaza-2-naphthyl]-4-piperidyl}methyl)-2(1H)-pyridinone] |  |  |  |  | IC50 [1, 3]: 1 to 30 µM; IC50 [2, 4]: 1 to 30 µM |
| CC(=O)N1CCc2nc(N3CCC(Oc4ccc(F)cc4F)CC3)c(-c3cccc(OC4CCC4)n3)nc2C1 [Compound 30, 1-[3-(6-cyclobutoxypyridin-2-yl)-2-[4-(2,4-difluorophenoxy)piperidin-1-yl]-5H,6H,7H,8H-pyrido[3,4-b]pyrazin-6-yl]ethan-1-one] |  |  |  |  | IC50 [1, 5]: 1 to 30 µM; IC50 [2, 5]: 1 to 30 µM |
| CCn1cc(-c2nc3c(nc2N2CCC(Oc4ccc(F)cc4F)CC2)CCN(C(=O)OC)C3)cn1 [Compound 273, methyl 2-[4-(2,4-difluorophenoxy)piperidin-1-yl]-3-(1-ethyl-1H-pyrazol-4-yl)-5H,6H,7H,8H-pyrido[3,4-b]pyrazine-6-carboxylate] | < 0.1 µM | 1 to 30 µM |  |  |  |
| CC(=O)N1CCc2nc(N3CCC(Oc4ccc(F)cc4F)CC3)c(C3CCNCC3)nc2C1 [Compound 265, 1-{2-[4-(2,4-difluorophenoxy)piperidin-1-yl]-3-(piperidin-4-yl)-5H,6H,7H,8H-pyrido[3,4-b]pyrazin-6-yl}ethan-1-one] |  |  | 1 to 30 µM | 1 to 30 µM |  |
| CC(=O)N1CCc2nc(N3CCC(Oc4ccc(F)cc4F)CC3)c(-c3ccc(=O)n(C)c3)nc2C1 [Compound 21, 5-{6-acetyl-2-[4-(2,4-difluorophenoxy)piperidin-1-yl]-5H,6H,7H,8H-pyrido[3,4-b]pyrazin-3-yl}-1-methyl-1,2-dihydropyridin-2-one] |  |  |  |  | IC50 [1, 5]: 1 to 30 µM; IC50 [2, 5]: 1 to 30 µM |
| [2H]C([2H])([2H])C([2H])([2H])n1cc(-c2nc3c(nc2N2CCC(Oc4ccc(F)cc4F)CC2)CCN(C(C)=O)C3)cn1 [Compound 406, 1-{2-[4-(2,4-difluorophenoxy)piperidin-1-yl]-3-{1-[(1,1,2,2,2-2H5)ethyl]-1H-pyrazol-4-yl}-5H,6H,7H,8H-pyrido[3,4-b]pyrazin-6-yl}ethan-1-one] |  |  | < 0.1 µM | 1 to 30 µM |  |
| CC(=O)N1CCc2nc(N3CCC(Oc4ccc(F)cc4F)CC3)c(-c3cccc(Cl)n3)nc2C1 [Compound 137, 1-(3-(6-chloropyridin-2-yl)-2-(4-(2,4-difluorophenoxy)piperidin-1-yl)-7,8-dihydropyrido[3,4-b]pyrazin-6(5H)-yl)ethanone] |  |  | 0.1 to 1 µM | 1 to 30 µM |  |
| CC(=O)N1CCc2nc(N3CCC(COc4cc(F)ccc4F)C3)c(-c3cnn(C)c3)nc2C1 (centres unmarked) [Compound 364, 1-(2-{3-[(2,5-difluorophenoxy)methyl]pyrrolidin-1-yl}-3-(1-methyl-1H-pyrazol-4-yl)-5H,6H,7H,8H-pyrido[3,4-b]pyrazin-6-yl)ethan-1-one] | 1 to 30 µM | 1 to 30 µM |  |  |  |
| CC(=O)N1CCc2nc(N3CCN(C(=O)c4cc(F)cc(F)c4)CC3)c(-c3cnn(C)c3)nc2C1 [Compound 285, 1-{2-[4-(3,5-difluorobenzoyl)piperazin-1-yl]-3-(1-methyl-1H-pyrazol-4-yl)-5H,6H,7H,8H-pyrido[3,4-b]pyrazin-6-yl}ethan-1-one] | ≥ 30 µM | 1 to 30 µM |  |  |  |
| CC(=O)N1CCc2nc(N3CCC(Oc4ccc(F)cc4F)CC3)c(-c3cnn(CC#N)c3)nc2C1 [Compound 81, 2-(4-{6-acetyl-2-[4-(2,4-difluorophenoxy)piperidin-1-yl]-5H,6H,7H,8H-pyrido[3,4-b]pyrazin-3-yl}-1H-pyrazol-1-yl)acetonitrile] |  |  | 0.1 to 1 µM | 1 to 30 µM |  |
| CC(C)(O)Cc1cc2nc(-c3cnn(C(F)F)c3)c(N3CCC(Oc4ccc(F)cc4F)CC3)nc2cn1 [Compound 714, 1-{2-[1-(difluoromethyl)-4-pyrazolyl]-3-[4-(2,4-difluorophenoxy)-1-piperidyl]-1,4,6-triaza-7-naphthyl}-2-methyl-2-propanol] | 0.1 to 1 µM | 1 to 30 µM |  |  |  |
| CC(=O)N1CCC(c2nc3c(nc2N2CCC(Oc4ccc(F)cc4F)CC2)CCN(C(C)=O)C3)CC1 [Compound 91, 1-(4-(6-acetyl-2-(4-(2,4-difluorophenoxy)piperidin-1-yl)-5,6,7,8-tetrahydropyrido[3,4-b]pyrazin-3-yl)piperidin-1-yl)ethan-1-one] |  |  | 1 to 30 µM | 1 to 30 µM |  |
| CC(C)(O)[C@@H](O)c1cc2nc(-c3cnn(CF)c3)c(N3CCN(Cc4cc(F)ccc4F)CC3)nc2cn1 (single isomer, unassigned) [Compound 724] | 0.1 to 1 µM | 1 to 30 µM |  |  |  |
| COc1ccc(CN2CCN(c3nc4c(nc3-c3cnn(C)c3)CN(C(C)=O)CC4)CC2)cc1F [Compound 319, 1-(2-{4-[(3-fluoro-4-methoxyphenyl)methyl]piperazin-1-yl}-3-(1-methyl-1H-pyrazol-4-yl)-5H,6H,7H,8H-pyrido[3,4-b]pyrazin-6-yl)ethan-1-one] | 1 to 30 µM | 1 to 30 µM |  |  |  |
| N#Cc1cc2nc(-c3cnn(CF)c3)c(N3CCN(Cc4ccc(F)cc4F)CC3)nc2cn1 [Compound 793, 3-{4-[(2,4-difluorophenyl)methyl]-1-piperazinyl}-2-[1-(fluoromethyl)-4-pyrazolyl]-1,4,6-triaza-7-naphthonitrile] | 1 to 30 µM | 1 to 30 µM |  |  |  |
| COc1cccc(-c2nc3c(nc2N2CCC(Oc4ccc(F)cc4F)CC2)CCN(S(C)(=O)=O)C3)n1 [Compound 59, 2-(4-(2,4-difluorophenoxy)piperidin-1-yl)-3-(6-methoxypyridin-2-yl)-6-(methylsulfonyl)-5,6,7,8-tetrahydropyrido[3,4-b]pyrazine] |  |  | 1 to 30 µM | 1 to 30 µM |  |
| CCn1cc(-c2nc3cnc([C@H](O)C(C)(C)O)cc3nc2N2CCC(Oc3ccc(F)cc3F)CC2)cn1 (single isomer, unassigned) [Compound 571] |  |  |  |  | IC50 [1, 3]: < 0.1 µM; IC50 [2, 4]: 1 to 30 µM |
| CC(C)(O)C(=O)c1cc2nc(N3CCC(Oc4ccc(F)cc4F)CC3)c(-c3cnn(C4CC4)c3)nc2cn1 [Compound 625, 1-{3-(1-cyclopropyl-4-pyrazolyl)-2-[4-(2,4-difluorophenoxy)-1-piperidyl]-1,4,6-triaza-7-naphthyl}-2-hydroxy-2-methyl-1-propanone] | 0.1 to 1 µM | 1 to 30 µM |  |  |  |
| CC(=O)N1CCc2nc(N3CCC(Oc4ccc(F)cc4F)CC3)c(-c3cccc(N4CCCC4)n3)nc2C1 [Compound 101, 1-{2-[4-(2,4-difluorophenoxy)piperidin-1-yl]-3-[6-(pyrrolidin-1-yl)pyridin-2-yl]-5H,6H,7H,8H-pyrido[3,4-b]pyrazin-6-yl}ethan-1-one] |  |  | 1 to 30 µM | 1 to 30 µM |  |
| Cn1cc(-c2nc3c(nc2N2CCC(Oc4ccc(F)cc4F)CC2)CC2COC(=O)N2C3)cn1 (centres unmarked) [Compound 486, 2-(4-(2,4-difluorophenoxy)piperidin-1-yl)-3-(1-methyl-1H-pyrazol-4-yl)-9a,10-dihydro-5H-oxazolo[3′,4′:1,6]pyrido[3,4-b]pyrazin-7(9H)-one] |  |  | 0.1 to 1 µM | 1 to 30 µM |  |
| CC(=O)Nc1cc2nc(N3CCN(Cc4ccc(F)cc4F)CC3)c(-c3cnn(C)c3)nc2cn1 [Compound 297, N-(2-{4-[(2,4-difluorophenyl)methyl]piperazin-1-yl}-3-(1-methyl-1H-pyrazol-4-yl)pyrido[3,4-b]pyrazin-7-yl)acetamide] | 1 to 30 µM | 1 to 30 µM |  |  |  |
| CC(C)(O)C(C)(O)c1cc2nc(N3CCN(Cc4ccc(F)cc4F)CC3)c(-c3cnn(C(F)F)c3)nc2cn1 (centres unmarked) [Compound 657, 2-{3-[1-(difluoromethyl)-4-pyrazolyl]-2-{4-[(2,4-difluorophenyl)methyl]-1-piperazinyl}-1,4,6-triaza-7-naphthyl}-3-methyl-2,3-butanediol] | 0.1 to 1 µM | 1 to 30 µM |  |  |  |
| Cn1cc(-c2nc3cnccc3nc2N2CCN(CC3CCCOC3)CC2)cn1 (centres unmarked) [Compound 241, 1-[3-(1-methyl-1H-pyrazol-4-yl)pyrido[3,4-b]pyrazin-2-yl]-4-[(oxan-3-yl)methyl]piperazine] |  |  | ≥ 30 µM | ≥ 30 µM |  |
| CC(C)(O)C(O)c1cc2nc(-c3cnn(C(F)F)c3)c(N3CCN(Cc4ccc(F)cc4F)CC3)nc2cn1 (single isomer, unassigned) [Compound 586] |  |  |  |  | IC50 [1, 3]: < 0.1 µM; IC50 [2, 4]: 0.1 to 1 µM |
